In brackets after ≈: the same amount, converted by molar mass. One block for each compound: values may come before it.
Key:
Experiment in all cases: in vitro antibacterial evaluation, MIC by broth dilution
Assay type in all cases: cell-based
Enterococcus sp. = conditions: broth dilution, 18 hours at 35° C.
Method in brief: (§1)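 Broth dilution per NCCLS standard M7-A2 in Muller-Hinton II […], with an inoculum of 5×10^5 CFU/mL and antibiotic spanning 64-0.06 μg/mL. The MIC is the lowest concentration that inhibits growth of the organism.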

Escherichia coli = conditions: for MIC Escherichia coli (ATCC 25922): strain ATCC 25922, 18 hours at 35° C.; for MIC Escherichia coli (GC 4559): strain GC 4559, 18 hours at 35° C.; for MIC Escherichia coli (GC 4560): strain GC 4560, 18 hours at 35° C.
Method in brief: as §1

Staphylococcus sp. = conditions: broth dilution, 18 hours at 35° C.; for MIC Staphylococcus aureus (GC 1131): strain GC 1131; for MIC Staphylococcus aureus (GC 3051): strain GC 3051; for MIC Staphylococcus aureus (GC 3053): strain GC 3053; for MIC Staphylococcus aureus (GC 4542): strain GC 4542; for MIC Staphylococcus aureus (GC 4544): strain GC 4544; for MIC Staphylococcus aureus (GC 4545): strain GC 4545; for MIC Staphylococcus haemolyticus (GC 4546): strain GC 4546; for MIC Coagulase Negative Staphylococcus (GC 4547): strain GC 4547; for MIC Coagulase Negative Staphylococcus (GC 4548): strain GC 4548; for MIC Coagulase Negative Staphylococcus (GC 4549): strain GC 4549; for MIC Coagulase Negative Staphylococcus (GC 4551): strain GC 4551; for MIC Coagulase Negative Staphylococcus (GC 6257): strain GC 6257
Method in brief: as §1

Streptococcus sp. = conditions: broth dilution, 18 hours at 35° C.
Method in brief: as §1

[1] = Enterococcus faecalis (ATCC 29212)
[2] = Enterococcus faecalis (GC 2242)
[3] = Enterococcus faecalis (GC 2691)
[4] = Enterococcus faecalis (GC 3059)
[5] = Enterococcus faecalis (GC 4552)
[6] = Enterococcus faecalis (GC 4553)
[7] = Enterococcus faecalis (GC 4554)
[8] = Enterococcus faecalis (GC 6189)
[9] = Streptococcus agalactiae (GC 4564)
[10] = Streptococcus pyogenes (GC 4563)

MIC Enterococcus avium (GC 4558) (Enterococcus sp.; Enterococcus avium (GC 4558)): 1 µg/mL (≈ 0.698 µM)
MIC Enterococcus faecalis (ATCC 29212) (Enterococcus sp.; [1]): 1 µg/mL (≈ 0.698 µM)
MIC Enterococcus faecalis (GC 2242) (Enterococcus sp.; [2]): <0.5 µg/mL
MIC Enterococcus faecalis (GC 2691) (Enterococcus sp.; [3]): 1 µg/mL (≈ 0.698 µM)
MIC Enterococcus faecalis (GC 3059) (Enterococcus sp.; [4]): 1 µg/mL (≈ 0.698 µM)
MIC Enterococcus faecalis (GC 4552) (Enterococcus sp.; [5]): 1 µg/mL (≈ 0.698 µM)
MIC Enterococcus faecalis (GC 4553) (Enterococcus sp.; [6]): 2 µg/mL (≈ 1.4 µM)
MIC Enterococcus faecalis (GC 4554) (Enterococcus sp.; [7]): 1 µg/mL (≈ 0.698 µM)
MIC Enterococcus faecalis (GC 6189) (Enterococcus sp.; [8]): 1 µg/mL (≈ 0.698 µM)
MIC Enterococcus faecium (GC 2243) (Enterococcus sp.; Enterococcus faecium (GC 2243)): 1 µg/mL (≈ 0.698 µM)
MIC Enterococcus faecium (GC 4556) (Enterococcus sp.; Enterococcus faecium (GC 4556)): 1 µg/mL (≈ 0.698 µM)
MIC Enterococcus faecium (GC 4557) (Enterococcus sp.; Enterococcus faecium (GC 4557)): 1 µg/mL (≈ 0.698 µM)
MIC Enterococcus faecalis (ATCC 29212) (Enterococcus sp.; strain ATCC 29212): 1 µg/mL (≈ 0.698 µM)
MIC Enterococcus faecalis (GC 2242) (Enterococcus sp.; strain GC 2242): <0.5 µg/mL
MIC Enterococcus faecium (GC 2243) (Enterococcus sp.; strain GC 2243): 1 µg/mL (≈ 0.698 µM)
MIC Enterococcus faecalis (GC 2691) (Enterococcus sp.; strain GC 2691): 1 µg/mL (≈ 0.698 µM)
MIC Enterococcus faecalis (GC 3059) (Enterococcus sp.; strain GC 3059): 1 µg/mL (≈ 0.698 µM)
MIC Enterococcus faecalis (GC 4552) (Enterococcus sp.; strain GC 4552): 1 µg/mL (≈ 0.698 µM)
MIC Enterococcus faecalis (GC 4553) (Enterococcus sp.; strain GC 4553): 2 µg/mL (≈ 1.4 µM)
MIC Enterococcus faecalis (GC 4554) (Enterococcus sp.; strain GC 4554): 1 µg/mL (≈ 0.698 µM)
MIC Enterococcus faecium (GC 4556) (Enterococcus sp.; strain GC 4556): 1 µg/mL (≈ 0.698 µM)
MIC Enterococcus faecium (GC 4557) (Enterococcus sp.; strain GC 4557): 1 µg/mL (≈ 0.698 µM)
MIC Enterococcus avium (GC 4558) (Enterococcus sp.; strain GC 4558): 1 µg/mL (≈ 0.698 µM)
MIC Enterococcus faecalis (GC 6189) (Enterococcus sp.; strain GC 6189): 1 µg/mL (≈ 0.698 µM)
MIC Escherichia coli (ATCC 25922) (Escherichia coli): 64 µg/mL (≈ 44.6 µM)
MIC Escherichia coli (GC 4559) (Escherichia coli): 32 µg/mL (≈ 22.3 µM)
MIC Escherichia coli (GC 4560) (Escherichia coli): <0.5 µg/mL
MIC Staphylococcus aureus (GC 1131) (Staphylococcus sp.; inoculum 5×10^5 CFU/mL): <0.5 µg/mL
MIC Staphylococcus aureus (ATCC 29213) (Staphylococcus sp.; strain ATCC 29213): 1 µg/mL (≈ 0.698 µM)
MIC Staphylococcus aureus (GC 1131) (Staphylococcus sp.): <0.5 µg/mL
MIC Staphylococcus aureus (GC 3051) (Staphylococcus sp.): 1 µg/mL (≈ 0.698 µM)
MIC Staphylococcus aureus (GC 3053) (Staphylococcus sp.): 1 µg/mL (≈ 0.698 µM)
MIC Staphylococcus aureus (GC 4541) (Staphylococcus sp.; strain GC 4541): <0.5 µg/mL
MIC Staphylococcus aureus (GC 4542) (Staphylococcus sp.): <0.5 µg/mL
MIC Staphylococcus aureus-SMITH (GC 4543) (Staphylococcus sp.; strain GC 4543): <0.5 µg/mL
MIC Staphylococcus aureus (GC 4544) (Staphylococcus sp.): 1 µg/mL (≈ 0.698 µM)
MIC Staphylococcus aureus (GC 4545) (Staphylococcus sp.): 1 µg/mL (≈ 0.698 µM)
MIC Coagulase Negative Staphylococcus (GC 4547) (Staphylococcus sp.): 1 µg/mL (≈ 0.698 µM)
MIC Coagulase Negative Staphylococcus (GC 4548) (Staphylococcus sp.): <0.5 µg/mL
MIC Coagulase Negative Staphylococcus (GC 4549) (Staphylococcus sp.): 1 µg/mL (≈ 0.698 µM)
MIC Coagulase Negative Staphylococcus (GC 4551) (Staphylococcus sp.): <0.5 µg/mL
MIC Coagulase Negative Staphylococcus (GC 6257) (Staphylococcus sp.): 0.5 µg/mL (≈ 0.349 µM)
MIC Staphylococcus aureus-SMITH (GC 4543) (Staphylococcus sp.; strain SMITH GC 4543): <0.5 µg/mL
MIC Streptococcus agalactiae (GC 4564) (Streptococcus sp.; [9]): <0.5 µg/mL
MIC Streptococcus pneumoniae (ATCC 6301) (Streptococcus sp.; Streptococcus pneumoniae (ATCC 6301)): <0.5 µg/mL
MIC Streptococcus pneumoniae (GC 1894) (Streptococcus sp.; Streptococcus pneumoniae (GC 1894)): <0.5 µg/mL
MIC Streptococcus pneumoniae (GC 4565) (Streptococcus sp.; Streptococcus pneumoniae (GC 4565)): <0.5 µg/mL
MIC Streptococcus pyogenes (GC 4563) (Streptococcus sp.; [10]): 1 µg/mL (≈ 0.698 µM)
MIC Streptococcus pneumoniae (ATCC 6301) (Streptococcus sp.; strain ATCC 6301): <0.5 µg/mL
MIC Streptococcus pneumoniae (GC 1894) (Streptococcus sp.; strain GC 1894): <0.5 µg/mL
MIC Streptococcus pyogenes (GC 4563) (Streptococcus sp.; strain GC 4563): 1 µg/mL (≈ 0.698 µM)
MIC Streptococcus agalactiae (GC 4564) (Streptococcus sp.; strain GC 4564): <0.5 µg/mL
MIC Streptococcus pneumoniae (GC 4565) (Streptococcus sp.; strain GC 4565): <0.5 µg/mL
Structure (SMILES): CC(c1ccccc1)C1NC(=O)CNC(=O)C(CO)NC(=O)C(C(O)C2CNC(=N)N2C2OC(CO)C(O)C(O)C2O)NC(=O)C(C(O)C2CNC(=N)N2)NC(=O)C(Cc2ccc(OC3OC(CO)C(OC4OC5COC(c6ccc7ccccc7c6)OC5C(O)C4O)C(O)C3O)cc2)NC1=O (centres unmarked) [Example 145]
MIC Staphylococcus haemolyticus (GC 4546) (Staphylococcus sp.): <0.5 µg/mL

MIC Enterococcus avium (GC 4558) (Enterococcus sp.; Enterococcus avium (GC 4558)): 0.5 to 2 µg/mL
MIC Enterococcus faecalis (ATCC 29212) (Enterococcus sp.; [1]): 0.5 to 2 µg/mL
MIC Enterococcus faecalis (GC 2242) (Enterococcus sp.; [2]): 0.5 to 1 µg/mL
MIC Enterococcus faecalis (GC 2691) (Enterococcus sp.; [3]): 0.5 µg/mL (≈ 0.347 µM)
MIC Enterococcus faecalis (GC 3059) (Enterococcus sp.; [4]): 0.5 µg/mL (≈ 0.347 µM)
MIC Enterococcus faecalis (GC 4552) (Enterococcus sp.; [5]): 0.5 to 1 µg/mL
MIC Enterococcus faecalis (GC 4553) (Enterococcus sp.; [6]): 0.5 to 1 µg/mL
MIC Enterococcus faecalis (GC 4554) (Enterococcus sp.; [7]): 0.5 to 1 µg/mL
MIC Enterococcus faecalis (GC 6189) (Enterococcus sp.; [8]): 0.5 µg/mL (≈ 0.347 µM)
MIC Enterococcus faecium (GC 2243) (Enterococcus sp.; Enterococcus faecium (GC 2243)): 1 to 2 µg/mL
MIC Enterococcus faecium (GC 4556) (Enterococcus sp.; Enterococcus faecium (GC 4556)): 2 µg/mL (≈ 1.39 µM)
MIC Enterococcus faecium (GC 4557) (Enterococcus sp.; Enterococcus faecium (GC 4557)): 1 to 2 µg/mL
MIC Enterococcus faecalis (ATCC 29212) (Enterococcus sp.; strain ATCC 29212): 0.5 to 2 µg/mL
MIC Enterococcus faecalis (GC 2242) (Enterococcus sp.; strain GC 2242): 0.5 to 1 µg/mL
MIC Enterococcus faecium (GC 2243) (Enterococcus sp.; strain GC 2243): 1 to 2 µg/mL
MIC Enterococcus faecalis (GC 2691) (Enterococcus sp.; strain GC 2691): 0.5 µg/mL (≈ 0.347 µM)
MIC Enterococcus faecalis (GC 3059) (Enterococcus sp.; strain GC 3059): 0.5 µg/mL (≈ 0.347 µM)
MIC Enterococcus faecalis (GC 4552) (Enterococcus sp.; strain GC 4552): 0.5 to 1 µg/mL
MIC Enterococcus faecalis (GC 4553) (Enterococcus sp.; strain GC 4553): 0.5 to 1 µg/mL
MIC Enterococcus faecalis (GC 4554) (Enterococcus sp.; strain GC 4554): 0.5 to 1 µg/mL
MIC Enterococcus faecium (GC 4556) (Enterococcus sp.; strain GC 4556): 2 µg/mL (≈ 1.39 µM)
MIC Enterococcus faecium (GC 4557) (Enterococcus sp.; strain GC 4557): 1 to 2 µg/mL
MIC Enterococcus avium (GC 4558) (Enterococcus sp.; strain GC 4558): 0.5 to 2 µg/mL
MIC Enterococcus faecalis (GC 6189) (Enterococcus sp.; strain GC 6189): 0.5 µg/mL (≈ 0.347 µM)
MIC Escherichia coli (ATCC 25922) (Escherichia coli): 64-64 μg/mL
MIC Escherichia coli (GC 4559) (Escherichia coli): 64 µg/mL (≈ 44.5 µM)
MIC Escherichia coli (GC 4560) (Escherichia coli): 0.5 to 2 µg/mL
MIC Staphylococcus aureus (GC 3051) (Staphylococcus sp.): 0.5 µg/mL (≈ 0.347 µM)
MIC Staphylococcus aureus (GC 3053) (Staphylococcus sp.): 0.5 µg/mL (≈ 0.347 µM)
MIC Staphylococcus aureus (GC 4542) (Staphylococcus sp.): 0.5 to 1 µg/mL
MIC Staphylococcus aureus-SMITH (GC 4543) (Staphylococcus sp.; strain GC 4543): 0.5 to 1 µg/mL
MIC Staphylococcus aureus (GC 4544) (Staphylococcus sp.): 0.5 to 1 µg/mL
MIC Staphylococcus aureus (GC 4545) (Staphylococcus sp.): 0.5 to 1 µg/mL
MIC Coagulase Negative Staphylococcus (GC 4547) (Staphylococcus sp.): 1 to 2 µg/mL
MIC Coagulase Negative Staphylococcus (GC 4548) (Staphylococcus sp.): <0.5 to 1 µg/mL
MIC Coagulase Negative Staphylococcus (GC 4549) (Staphylococcus sp.): <0.5 to 1 µg/mL
MIC Coagulase Negative Staphylococcus (GC 4551) (Staphylococcus sp.): 1 µg/mL (≈ 0.695 µM)
MIC Coagulase Negative Staphylococcus (GC 6257) (Staphylococcus sp.): 2 µg/mL (≈ 1.39 µM)
MIC Coagulase Negative Staphylococcus (ID-3941) (Staphylococcus sp.; strain ID-3941): 1 µg/mL (≈ 0.695 µM)
MIC Staphylococcus aureus-SMITH (GC 4543) (Staphylococcus sp.; strain SMITH GC 4543): 0.5 to 1 µg/mL
MIC Streptococcus agalactiae (GC 4564) (Streptococcus sp.; [9]): <0.12 µg/mL
MIC Streptococcus pyogenes (GC 4563) (Streptococcus sp.; [10]): >0.12 µg/mL
MIC Streptococcus pyogenes (ID-3187) (Streptococcus sp.; Streptococcus pyogenes (ID-3187)): <0.5 µg/mL
MIC Streptococcus pyogenes (GC 4563) (Streptococcus sp.; strain GC 4563): >0.12 µg/mL
MIC Streptococcus agalactiae (GC 4564) (Streptococcus sp.; strain GC 4564): <0.12 µg/mL
MIC Streptococcus pyogenes (ID-3187) (Streptococcus sp.; strain ID-3187): <0.5 µg/mL
Structure (SMILES): CC(c1ccccc1)C1NC(=O)CNC(=O)C(CO)NC(=O)C(C(O)C2CNC(=N)N2C2OC(CO)C(O)C(O)C2O)NC(=O)C(C(O)C2CNC(=N)N2)NC(=O)C(Cc2ccc(OC3OC(CO)C(OC4OC5COC(c6ccc(C(C)(C)C)cc6)OC5C(O)C4O)C(O)C3O)cc2)NC1=O (centres unmarked) [Example 147]
MIC Staphylococcus haemolyticus (GC 4546) (Staphylococcus sp.): 1 to 2 µg/mL
